Patent US8952163B2, “Substituted hydroxamic acids and uses thereof” (Millennium Pharmaceuticals, Inc., priority 2010, dated 2015)

Target: T1, purified human HDAC6 (Homo sapiens, UniProt Q9UBN7)
T1 construct: purchased BPS Bioscience 5006
T1 sequence (Q9UBN7 1-1215): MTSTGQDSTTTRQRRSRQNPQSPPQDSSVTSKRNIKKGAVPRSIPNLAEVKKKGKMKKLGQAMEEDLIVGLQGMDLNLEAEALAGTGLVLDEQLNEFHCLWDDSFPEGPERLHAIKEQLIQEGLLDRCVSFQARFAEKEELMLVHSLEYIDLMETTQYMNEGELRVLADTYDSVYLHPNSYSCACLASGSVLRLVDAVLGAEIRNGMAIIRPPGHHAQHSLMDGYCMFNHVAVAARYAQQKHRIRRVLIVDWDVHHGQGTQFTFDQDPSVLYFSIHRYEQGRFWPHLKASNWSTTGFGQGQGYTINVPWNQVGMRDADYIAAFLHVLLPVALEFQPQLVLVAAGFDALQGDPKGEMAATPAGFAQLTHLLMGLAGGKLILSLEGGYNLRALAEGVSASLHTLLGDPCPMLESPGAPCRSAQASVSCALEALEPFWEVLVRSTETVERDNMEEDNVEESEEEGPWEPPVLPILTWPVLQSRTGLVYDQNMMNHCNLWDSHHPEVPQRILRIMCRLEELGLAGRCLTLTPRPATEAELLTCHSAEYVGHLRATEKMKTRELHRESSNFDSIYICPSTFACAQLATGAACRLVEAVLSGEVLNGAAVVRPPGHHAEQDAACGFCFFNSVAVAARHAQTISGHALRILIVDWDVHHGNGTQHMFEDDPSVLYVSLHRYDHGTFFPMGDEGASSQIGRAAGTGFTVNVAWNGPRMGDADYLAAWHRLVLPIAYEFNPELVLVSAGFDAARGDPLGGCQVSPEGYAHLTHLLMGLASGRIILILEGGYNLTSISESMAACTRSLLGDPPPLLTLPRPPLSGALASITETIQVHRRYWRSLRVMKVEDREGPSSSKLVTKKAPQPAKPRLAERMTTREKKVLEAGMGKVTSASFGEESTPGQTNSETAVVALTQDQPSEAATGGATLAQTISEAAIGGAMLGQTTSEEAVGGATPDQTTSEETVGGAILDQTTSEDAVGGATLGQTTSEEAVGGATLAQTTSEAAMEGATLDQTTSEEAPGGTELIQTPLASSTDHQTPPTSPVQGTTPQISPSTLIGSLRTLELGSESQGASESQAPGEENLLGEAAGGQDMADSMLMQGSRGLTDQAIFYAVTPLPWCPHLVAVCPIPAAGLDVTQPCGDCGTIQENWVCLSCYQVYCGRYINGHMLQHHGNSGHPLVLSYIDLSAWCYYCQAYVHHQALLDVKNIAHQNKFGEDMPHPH
Experiment: HDAC6 Enzyme Assay
Format: biochemical
Settings: test compound at 1.235 μM; substrate Ac-Arg-Gly-Lys(Ac)-AMC, 1 hour at 30° C.; read-out: Percent Inhibition at 1.235 μM
Experimental: To measure the inhibition of HDAC6 activity, purified human HDAC6 (BPS Bioscience; Cat. No. 5006) is incubated with substrate Ac-Arg-Gly-Lys(Ac)-AMC peptide (Bachem Biosciences; Cat. No. I-1925) for 1 hour at 30° C. in the presence of test compounds or vehicle DMSO control. The reaction is stopped with the HDAC inhibitor trichostatin A (Sigma; Cat. No. T8552) and the amount of Arg-Gly-Lys-AMC generated is quantitated by digestion with trypsin (Sigma; Cat. No. T1426) and subsequent measurement of the amount of AMC released using a fluorescent plate reader (Pherastar, BMG Technologies) set at Ex 340 nm and Em 460 nm. Concentration response curves are generated by calculating the fluorescence increase in test compound-treated samples relative to DMSO-treated controls, and percentage inhibition values at a single concentration or enzyme inhibition (IC50) values are determined from those curves. One skilled in the art will appreciate that the values generated either as percentage inhibition at a single concentration or IC50 values are subject to experimental variation.

Row | SMILES | inhibition at 1.235 µM [%]
1 | Cc1nc(C(=O)N2CCc3ncc(C(=O)NO)cc3C2)cs1 [Compound I-1, N-hydroxy-6-[(2-methyl-1,3-thiazol-4-yl)carbonyl]-5,6,7,8-tetrahydro-1,6-naphthyridine-3-carboxamide] | 87.8
2 | CC(=O)N1CCc2nc(C(=O)NO)ccc2C1 [Compound I-2, 6-acetyl-N-hydroxy-5,6,7,8-tetrahydro-1,6-naphthyridine-2-carboxamide] | 34.1
3 | CC(C)(C)OC(=O)N1CCc2cc(C(=O)NO)cnc2C1 [Compound I-3, tert-butyl 3-[(hydroxyamino)carbonyl]-5,8-dihydro-1,7-naphthyridine-7(6H)-carboxylate] | 95.3
4 | O=C(NO)c1cnc2c(c1)CCN(C(=O)c1cc3ccccc3s1)C2 [Compound I-4, 7-(1-benzothien-2-ylcarbonyl)-N-hydroxy-5,6,7,8-tetrahydro-1,7-naphthyridine-3-carboxamide] | 97.2
5 | O=C(NO)c1cnc2c(c1)CN(C(=O)c1sc3ccccc3c1Cl)CC2 [Compound I-5, 6-[(3-chloro-1-benzothien-2-yl)carbonyl]-N-hydroxy-5,6,7,8-tetrahydro-1,6-naphthyridine-3-carboxamide] | 93.4
6 | Cc1nc(-c2ccccn2)sc1C(=O)N1CCc2nc(C(=O)NO)ccc2C1 [Compound I-6, N-hydroxy-6-[(4-methyl-2-pyridin-2-yl-1,3-thiazol-5-yl)carbonyl]-5,6,7,8-tetrahydro-1,6-naphthyridine-2-carboxamide] | 81.4
7 | O=C(NO)c1ccc2c(n1)CCN(C(=O)c1[nH]c3ccccc3c1-c1ccccc1)C2 [Compound I-7, N-hydroxy-6-[(3-phenyl-1H-indol-2-yl)carbonyl]-5,6,7,8-tetrahydro-1,6-naphthyridine-2-carboxamide] | 79
8 | Cc1ccccc1NC(=O)N1CCc2nc(C(=O)NO)ccc2C1 [Compound I-8, N^2-hydroxy-N^6-(2-methylphenyl)-7,8-dihydro-1,6-naphthyridine-2,6(5H)-dicarboxamide] | 40.4
9 | CC1(C(=O)N2CCc3cc(C(=O)NO)cnc3C2)CCCCC1 [Compound I-9, N-hydroxy-7-[(1-methylcyclohexyl)carbonyl]-5,6,7,8-tetrahydro-1,7-naphthyridine-3-carboxamide] | 95.2
10 | Cc1nc(C(=O)N2CCc3cc(C(=O)NO)cnc3C2)cs1 [Compound I-10, N-hydroxy-7-[(2-methyl-1,3-thiazol-4-yl)carbonyl]-5,6,7,8-tetrahydro-1,7-naphthyridine-3-carboxamide] | 84.6
11 | Cn1cccc1C(=O)N1CCc2nc(C(=O)NO)ccc2C1 [Compound I-11, N-hydroxy-6-[(1-methyl-1H-pyrrol-2-yl)carbonyl]-5,6,7,8-tetrahydro-1,6-naphthyridine-2-carboxamide] | 73.9
12 | O=C(NO)c1cnc2c(c1)CN(C(=O)c1ccc(Cl)cc1)CC2 [Compound I-12, 6-(4-chlorobenzoyl)-N-hydroxy-5,6,7,8-tetrahydro-1,6-naphthyridine-3-carboxamide] | 94.5
13 | O=C(NO)c1ccc2c(n1)CCN(C(=O)NC13CC4CC(CC(C4)C1)C3)C2 [Compound I-13, N^6-[1-adamantyl]-N^2-hydroxy-7,8-dihydro-1,6-naphthyridine-2,6(5H)-dicarboxamide] | 70.6
14 | O=C(NO)c1ccc2c(n1)CCN(C(=O)c1cc3ccccc3o1)C2 [Compound I-14, 6-(1-benzofuran-2-ylcarbonyl)-N-hydroxy-5,6,7,8-tetrahydro-1,6-naphthyridine-2-carboxamide] | 89.9
15 | O=C(NO)c1cnc2c(c1)CCN(C(=O)C13CC4CC(CC(C4)C1)C3)C2 [Compound I-15, 7-[1-adamantylcarbonyl]-N-hydroxy-5,6,7,8-tetrahydro-1,7-naphthyridine-3-carboxamide] | 95.6
16 | CCC(C)NC(=O)N1CCc2nc(C(=O)NO)ccc2C1 (centres unmarked) [Compound I-16, N^6-(sec-butyl)-N^2-hydroxy-7,8-dihydro-1,6-naphthyridine-2,6(5H)-dicarboxamide] | 27.3
17 | O=C(NO)c1ccc2c(n1)CCN(C(=O)NC1CCCCC1)C2 [Compound I-17, N^6-cyclohexyl-N^2-hydroxy-7,8-dihydro-1,6-naphthyridine-2,6(5H)-dicarboxamide] | 41.2
18 | O=C(NO)c1cnc2c(c1)CCN(C(=O)c1cc3ccccc3o1)C2 [Compound I-18, 7-(1-benzofuran-2-ylcarbonyl)-N-hydroxy-5,6,7,8-tetrahydro-1,7-naphthyridine-3-carboxamide] | 97.2
19 | CC1(C(=O)N2CCc3nc(C(=O)NO)ccc3C2)CCCCC1 [Compound I-19, N-hydroxy-6-[(1-methylcyclohexyl)carbonyl]-5,6,7,8-tetrahydro-1,6-naphthyridine-2-carboxamide] | 79.5
20 | O=C(NO)c1cnc2c(c1)CN(Cc1ccccc1)CC2 [Compound I-20, 6-benzyl-N-hydroxy-5,6,7,8-tetrahydro-1,6-naphthyridine-3-carboxamide] | 58.6
21 | CC(=O)N1CCc2cc(C(=O)NO)cnc2C1 [Compound I-21, 7-acetyl-N-hydroxy-5,6,7,8-tetrahydro-1,7-naphthyridine-3-carboxamide] | 73.9
22 | O=C(NO)c1ccc2c(n1)CCN(C(=O)C13CC4CC(CC(C4)C1)C3)C2 [Compound I-22, 6-[1-adamantylcarbonyl]-N-hydroxy-5,6,7,8-tetrahydro-1,6-naphthyridine-2-carboxamide] | 90.2
23 | Cc1nc(-c2ccccn2)sc1C(=O)N1CCc2ncc(C(=O)NO)cc2C1 [Compound I-23, N-hydroxy-6-[(4-methyl-2-pyridin-2-yl-1,3-thiazol-5-yl)carbonyl]-5,6,7,8-tetrahydro-1,6-naphthyridine-3-carboxamide] | 92
24 | Cn1cccc1C(=O)N1CCc2cc(C(=O)NO)cnc2C1 [Compound I-24, N-hydroxy-7-[(1-methyl-1H-pyrrol-2-yl)carbonyl]-5,6,7,8-tetrahydro-1,7-naphthyridine-3-carboxamide] | 92.3
25 | O=C(NO)c1ccc2c(n1)CCN(C(=O)NCc1ccccc1)C2 [Compound I-25, N^6-benzyl-N^2-hydroxy-7,8-dihydro-1,6-naphthyridine-2,6(5H)-dicarboxamide] | 60.4
26 | O=C(NO)c1cnc2c(c1)CCN(C(=O)C13CC4CC(CC(O)(C4)C1)C3)C2 [Compound I-26, N-hydroxy-7-[(3-hydroxy-1-adamantyl)carbonyl]-5,6,7,8-tetrahydro-1,7-naphthyridine-3-carboxamide] | 94
27 | Cc1nc(C(=O)N2CCc3nc(C(=O)NO)ccc3C2)cs1 [Compound I-27, N-hydroxy-6-[(2-methyl-1,3-thiazol-4-yl)carbonyl]-5,6,7,8-tetrahydro-1,6-naphthyridine-2-carboxamide] | 51.2
28 | O=C(NO)c1cnc2c(c1)CCN(C(=O)c1ccc(Cl)cc1)C2 [Compound I-28, 7-(4-chlorobenzoyl)-N-hydroxy-5,6,7,8-tetrahydro-1,7-naphthyridine-3-carboxamide] | 91.9
29 | O=C(NO)c1cnc2c(c1)CN(C(=O)c1[nH]c3ccccc3c1-c1ccccc1)CC2 [Compound I-29, N-hydroxy-6-[(3-phenyl-1H-indol-2-yl)carbonyl]-5,6,7,8-tetrahydro-1,6-naphthyridine-3-carboxamide] | 97.8
